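48-hour exposure; five concentrations; linearly interpolated endpoints. GI50 marks 50% less growth.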 Activity calls are given as the source filed them. Cut-off read from the data, not from the text of the source: active = GI50 up to about 1.1 µM and inactive = higher.

We go through 14 compounds from ChEMBL document CHEMBL1201862, “PubChem BioAssay data set” (2004).

Some test systems named below: 786-0; A498; A549; CCRF-CEM; EKVX; HCT-116; HCT-15; HT-29; LOX IMVI; M14; MOLT-4; Malme-3M; NCI-H23; OVCAR-3; SK-MEL-2; SK-MEL-5; SR.
Common to all, as to test: NCI tumour cell line growth inhibition, 48 h

With `CCC1(N=[N+]=[N-])C(=O)Nc2cc(C)ccc2C1=O` (centres undefined), the GI50 with 786-0 is > 100 µM (inactive); in the assay on A498 it was > 100 µM (inactive); in the assay with A549, > 100 µM (inactive); in the assay with CCRF-CEM, 34.3 µM (inactive); with EKVX, 42.7 µM (inactive); with HCT-116 it was > 100 µM (inactive). Further, the GI50 with HCT-15 is 72.1 µM; with HT-29 it was 89.9 µM (inactive); in the assay on LOX IMVI, 86.5 µM (inactive); with M14, 76.7 µM (inactive); in the assay with MOLT-4, 39.4 µM (inactive); in the assay on Malme-3M, 68.1 µM (inactive). For the same compound, the GI50 is 70.1 µM (inactive) in the assay on NCI-H23, 45.6 µM (inactive) in the assay with OVCAR-3, > 100 µM (inactive) in the assay with SK-MEL-2 and 51.8 µM (inactive) with SK-MEL-5.
On to `CC(C)(C)c1cc(C(O)(C(F)(F)F)C(F)(F)F)c2c(c1)C(C(F)(F)F)(C(F)(F)F)OC(c1ccccc1)(C(C)(C)C)N2` (centres undefined), for which the GI50 in the assay on 786-0 is > 100 µM (inactive); in the assay on A549, > 100 µM (inactive); in the assay on EKVX, 5.18 µM (inactive); in the assay with HCT-116 it was 3.72 µM (inactive); with HCT-15, 3.56 µM; with HT-29, 3.4 µM (inactive). The GI50 with M14 was 0.659 µM (active); in the assay on MOLT-4 it was 2.07 µM (inactive); in the assay on Malme-3M it was 7.06 µM (inactive); with NCI-H23, 1.99 µM (inactive); with OVCAR-3 it was 0.637 µM (active); with SK-MEL-2, 4.45 µM (inactive). Moreover, the GI50 in the assay with SK-MEL-5 was 2.45 µM (inactive); with SR, 2.58 µM (inactive).
Turning to `CNC(=O)C(C)Oc1ccc(OCC2CCCCC2)cc1` (centres undefined), the GI50 in the assay with 786-0 is > 100 µM (inactive); in the assay on A498, > 100 µM (inactive); with A549, > 100 µM (inactive); in the assay with CCRF-CEM, > 100 µM (inactive); with HCT-116 it was > 100 µM (inactive); with HCT-15, more than 100 µM. Moreover, the GI50 was 86.3 µM (inactive) in the assay with HT-29; > 100 µM (inactive) with LOX IMVI; > 100 µM (inactive) in the assay on M14; > 100 µM (inactive) in the assay with MOLT-4; 25.3 µM (inactive) in the assay with Malme-3M; 35.6 µM (inactive) with NCI-H23. The GI50 with OVCAR-3 is 26.4 µM (inactive); with SK-MEL-2 it was > 100 µM (inactive); with SK-MEL-5 it was 82.6 µM (inactive).
As for `CC(C)(C)S(=O)OC12CC3CC(CC(C3)C1)C2` (centres undefined), the GI50 in the assay on 786-0 was > 100 µM (inactive); with A549, > 100 µM (inactive); in the assay on CCRF-CEM it was > 100 µM (inactive); in the assay with EKVX, > 100 µM (inactive); in the assay with HCT-116 it was > 100 µM (inactive); in the assay with HCT-15 it was more than 100 µM. The GI50 with HT-29, in the assay on LOX IMVI, in the assay with M14, in the assay with MOLT-4, in the assay with Malme-3M and in the assay on NCI-H23 was > 100 µM (inactive) each time. Also, the GI50 in the assay with OVCAR-3, with SK-MEL-2, in the assay with SK-MEL-5 and in the assay with SR was > 100 µM (inactive) throughout.
Regarding `CCCN1CN(C(C(=O)N[C@@H]2C(=O)N3C(C(=O)O)=C(C)CSC23)c2ccc(O)cc2)CSC1=S` (some centres undefined), the GI50 with 786-0 was > 100 µM (inactive); in the assay on A498, > 100 µM (inactive); in the assay with A549 it was > 100 µM (inactive); in the assay on CCRF-CEM, 66.8 µM (inactive); with EKVX, > 100 µM (inactive); in the assay with HCT-116, > 100 µM (inactive). The GI50 in the assay on HCT-15 is more than 100 µM; with HT-29, > 100 µM (inactive); with LOX IMVI, 76.6 µM (inactive); with M14 it was > 100 µM (inactive); in the assay with MOLT-4, 57.3 µM (inactive); in the assay with Malme-3M it was > 100 µM (inactive). Further, the GI50 in the assay with NCI-H23 is > 100 µM (inactive); in the assay on OVCAR-3, 45.5 µM (inactive); in the assay with SK-MEL-2, > 100 µM (inactive); in the assay with SK-MEL-5 it was > 100 µM (inactive).
As to `CCc1ccccc1NC(=O)C(=O)C(C#N)c1ccccc1Cl` (centres undefined), the GI50 was > 100 µM (inactive) in the assay on 786-0; 35.5 µM (inactive) in the assay on A498; > 100 µM (inactive) in the assay with A549; > 100 µM (inactive) with CCRF-CEM; > 100 µM (inactive) in the assay on EKVX; > 100 µM (inactive) in the assay with HCT-116. The GI50 in the assay on HT-29 is > 100 µM (inactive); with LOX IMVI it was 3.36 µM (inactive); with M14, > 100 µM (inactive); in the assay with MOLT-4, > 100 µM (inactive); in the assay with Malme-3M, > 100 µM (inactive); in the assay on NCI-H23 it was > 100 µM (inactive). For the same compound, the GI50 with OVCAR-3, with SK-MEL-2 and in the assay with SK-MEL-5 was > 100 µM (inactive) each time.
For the compound `CN1CCN(C)C1c1cccc(C2N(C)CCN2C)c1`, the GI50 with 786-0 was > 100 µM (inactive); in the assay on A498 it was > 100 µM (inactive); in the assay on CCRF-CEM, > 100 µM (inactive); with HCT-116 it was > 100 µM (inactive); with HCT-15, more than 100 µM; with HT-29, > 100 µM (inactive). Also, the GI50 in the assay on LOX IMVI, in the assay on M14, in the assay on MOLT-4, with NCI-H23, in the assay on OVCAR-3 and in the assay with SK-MEL-2 was > 100 µM (inactive) each time.
For the compound `CC(=O)Nc1c(C)ccc2c1C(=O)c1ccccc1C2=O`, the GI50 was > 100 µM (inactive) in the assay with 786-0; > 100 µM (inactive) with A498; > 100 µM (inactive) in the assay with A549; 80.4 µM (inactive) in the assay with CCRF-CEM; 91.8 µM (inactive) in the assay on HCT-116; more than 100 µM in the assay on HCT-15. In addition, the GI50 is > 100 µM (inactive) in the assay on HT-29; 79.3 µM (inactive) with LOX IMVI; > 100 µM (inactive) in the assay with M14; > 100 µM (inactive) in the assay on MOLT-4; > 100 µM (inactive) in the assay on Malme-3M; > 100 µM (inactive) in the assay with SK-MEL-2. Moreover, the GI50 with SK-MEL-5 and in the assay with SR was > 100 µM (inactive) throughout.
For `CC/C(=N/O)C(C)C(=O)CCC(=O)Nc1ccc(Cl)cc1` (centres undefined), the GI50 in the assay on 786-0, in the assay with A498, with A549, in the assay on CCRF-CEM, in the assay on EKVX and with HCT-116 was > 100 µM (inactive) throughout. Besides, the GI50 was 26.9 µM with HCT-15; > 100 µM (inactive) in the assay on HT-29; > 100 µM (inactive) in the assay on LOX IMVI; > 100 µM (inactive) in the assay with M14; > 100 µM (inactive) in the assay on MOLT-4; > 100 µM (inactive) with Malme-3M. For the same compound, the GI50 in the assay with NCI-H23, in the assay with OVCAR-3, with SK-MEL-2 and in the assay on SK-MEL-5 was > 100 µM (inactive) each time.
For `COc1ccc(/C(=N/Nc2ccccc2)C(c2ccc(OC)cc2)C2OC(=O)c3ccccc32)cc1` (centres undefined), the GI50 in the assay with 786-0 is > 100 µM (inactive); in the assay with A498 it was > 100 µM (inactive); with A549, 99.3 µM (inactive); with CCRF-CEM, 79.8 µM (inactive); in the assay on EKVX, 37.8 µM (inactive); with HCT-116, > 100 µM (inactive). The GI50 with HCT-15 was more than 100 µM; with HT-29, 90.6 µM (inactive); in the assay with M14, > 100 µM (inactive); in the assay on MOLT-4 it was 25.6 µM (inactive); with Malme-3M, > 100 µM (inactive); with SK-MEL-2, > 100 µM (inactive). Further, the GI50 with SK-MEL-5 is 33.2 µM (inactive).
For `COc1cccc2c1[C@]1(O)C(O)CCCC21` (some centres undefined), the GI50 with 786-0 was > 100 µM (inactive); in the assay on A498 it was > 100 µM (inactive); in the assay on A549 it was > 100 µM (inactive); in the assay with CCRF-CEM it was > 100 µM (inactive); in the assay with EKVX, > 10 µM (inactive); in the assay with HCT-116, > 100 µM (inactive). The GI50 is more than 100 µM in the assay with HCT-15; > 100 µM (inactive) in the assay with HT-29; > 100 µM (inactive) in the assay with LOX IMVI; > 100 µM (inactive) with M14; > 100 µM (inactive) in the assay with MOLT-4; > 100 µM (inactive) in the assay with Malme-3M. Moreover, the GI50 with NCI-H23, in the assay with OVCAR-3, with SK-MEL-2 and with SK-MEL-5 was > 100 µM (inactive) in each case.
Consider `CCOC(=O)c1cc(OC(=O)CC)c2c(OC)ccc(OC)c2c1`, for which the GI50 in the assay on 786-0 was 31 µM (inactive); with A549 it was > 100 µM (inactive); in the assay on EKVX, 35.8 µM (inactive); with HCT-116 it was 70.1 µM (inactive); in the assay on HCT-15, 25.9 µM; in the assay with HT-29, > 10 µM (inactive). Also, the GI50 is 43.7 µM (inactive) with MOLT-4; > 100 µM (inactive) in the assay with Malme-3M; 74 µM (inactive) in the assay with NCI-H23; > 100 µM (inactive) in the assay with SK-MEL-2; > 100 µM (inactive) in the assay on SK-MEL-5; 18.7 µM (inactive) with SR.
In the case of `CN1N=CSC12C(=O)N(c1ccc(Cl)cc1)C(=O)N2c1ccc(Cl)cc1` (centres undefined), the GI50 in the assay on 786-0 is 4.22 µM (inactive); with A498, 3.1 µM (inactive); in the assay with A549, 3.46 µM (inactive); with CCRF-CEM, 3.37 µM (inactive); in the assay with EKVX it was 7.14 µM (inactive); in the assay on HCT-116 it was 3.15 µM (inactive). In addition, the GI50 is 3.4 µM (inactive) with HT-29; 3.21 µM (inactive) in the assay with LOX IMVI; 5.42 µM (inactive) in the assay on M14; 2.67 µM (inactive) in the assay on MOLT-4; 3.55 µM (inactive) in the assay with Malme-3M; 2.12 µM (inactive) in the assay on NCI-H23. In addition, the GI50 was 1.43 µM (inactive) with OVCAR-3, 3.55 µM (inactive) in the assay with SK-MEL-5 and 2.75 µM (inactive) in the assay on SR.
For `CN(C)c1ccc(/C=C(\NC(=O)c2ccccc2)c2nc3cncnc3[nH]2)cc1`, the GI50 with 786-0 is > 100 µM (inactive); in the assay with A549, > 100 µM (inactive); with CCRF-CEM, > 100 µM (inactive); in the assay on EKVX it was > 100 µM (inactive); in the assay with HCT-15, more than 100 µM; with HT-29 it was > 100 µM (inactive). In addition, the GI50 in the assay on M14, with MOLT-4, in the assay with Malme-3M, in the assay on NCI-H23, in the assay on OVCAR-3 and in the assay with SK-MEL-2 was > 100 µM (inactive) each time. For the same compound, the GI50 in the assay with SK-MEL-5 and with SR was > 100 µM (inactive) in each case.
